Measurements reported in the supplement of paper PMC3493320.
pIC50: −log10 of the molar value.

System: NCI-H295R
Experiment: IC50 (antiproliferative, ATP content)
Details: 48 h
Method in brief: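 Compounds were pin-transferred at 8 final concentrations between 0.6 nM and 46 µM onto adrenocortical carcinoma cells (1500 per well, 1536-well plates) that had been cultured overnight in serum-free DMEM with ITS. Plates then stood 48 h at 37 °C, 5% CO2, and ATP was detected by CellTiter-Glo luminescence. IC50 was derived from logistic fits of normalised signal, and compounds giving no concentration response were noted as above the top dose.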

Row | pIC50 | SMILES
1 | < 4.34 | COC(=O)CC[C@H](N)C(=O)O
2 | < 4.34 | OC(=O)[C@@H](N)C\C2=C\Nc1ccc(O)cc12
3 | < 4.34 | C[C@H](CCC(=O)O)[C@H]1CC[C@H]2[C@@H]3[C@H](O)C[C@@H]4C[C@H](O)CC[C@]4(C)[C@H]3CC[C@]12C
4 | < 4.34 | O=c1c(-c2ccc(O)cc2)coc2cc(O)cc(O)c12
5 | < 4.34 | CCCCC(CC)COC(=O)C=Cc1ccc(OC)cc1 (stereo not drawn)
6 | < 4.34 | C#CCN(C)Cc1ccccc1.Cl
7 | < 4.34 | C[C@]12CCC(=O)C=C1CC[C@@H]1[C@@H]2[C@@H](O)C[C@@]2(C)[C@H]1CC[C@]2(O)C(=O)COP(=O)([O-])[O-].[Na+].[Na+]
8 | < 4.34 | O=[C@](O)[C@H](CC1)NC1=O
9 | < 4.34 | CC1CCCC(C)N1NC(=O)c1ccc(Cl)c(S(N)(=O)=O)c1 (stereo not drawn)
10 | < 4.34 | O=C(O)Cc1ccc(CCNS(=O)(=O)c2ccc(Cl)cc2)cc1
11 | < 4.34 | Cc1nc(NS(=O)(=O)c2ccc(N)cc2)nc(C)c1Br
12 | < 4.34 | CCOc1ccccc1OCCN[C@H](C)Cc1ccc(OC)c(S(N)(=O)=O)c1.Cl
13 | < 4.34 | O=C(OCCOCCO)c1ccccc1Nc1cccc(C(F)(F)F)c1
14 | < 4.34 | NC(=O)c1ccccc1O
15 | < 4.34 | COc1ccc(CN(CCN(C)C)c2ccccn2)cc1
16 | < 4.34 | CC12CCC(CC1)C(C)(C)O2
17 | < 4.34 | O=C(N[C@@H](CCCCN)C(N[C@@H](C(O)C)C(N[C@H](C(N[C@@H]([C@@H](O)C)C(N[C@@H](CO)C6=O)=O)=O)CC5=CC=CC=C5)=O)=O)[C@@H](NC([C@@H](NC([C@@H](NC([C@H](CC(N)=O)NC([C@H](CCCCN)NC([C@@H](NC(CNC([C@@H](N)C)=O)=O)CSSC[C@@H]([C@@](O)=O)N6)=O)=O)=O)CC4=CC=CC=C4)=O)CC3=CC=CC=C3)=O)CC1=CNC2=C1C=CC=C2 (stereo partly drawn)
18 | < 4.34 | OC1OC[C@@H](O)[C@H](O)[C@@H]1O (stereo partly drawn)
19 | < 4.34 | COC(c1ccccc1)(c1ccccc1)[C@H](Oc1nc(C)cc(C)n1)C(=O)O
20 | < 4.34 | CCN(CC)CCOC[C@H]1O[C@@H](O)[C@H](OCCN(CC)CC)[C@@H](O)[C@@H]1O
21 | < 4.34 | CN1C(C(=O)Nc2ccccn2)=C(O)c2ccccc2S1(=O)=O
22 | < 4.34 | CCCCC
23 | < 4.34 | CC(C(=O)O)c1ccc(C(=O)c2cccs2)cc1 (stereo not drawn)
24 | < 4.34 | Cc1cccc(C)c1NC(=O)CN1CCCCCC1
25 | < 4.34 | O=C(O)CCC(=O)c1ccc(-c2ccccc2)cc1
26 | < 4.34 | CC1=CCC(C(C)(C)O)CC1 (stereo not drawn)

Row | pIC50 | SMILES
27 | < 4.34 | CCN(CCCCOC(=O)c1ccc(OC)c(OC)c1)C(C)Cc1ccc(OC)cc1.Cl (stereo not drawn)
28 | < 4.34 | NC(=O)c1cccnc1
29 | < 4.34 | Cc1cc2c(s1)Nc1ccccc1N=C2N1CCN(C)CC1
30 | < 4.34 | O=[C@](CO)[C@]([C@H]2C1)(O[C@@](CCC)([H])O2)[C@](C[C@@H]3O)(C)[C@@]1([C@@]([C@@]([C@](C)4C=C5)3[H])(CCC4=CC5=O)[H])[H]
31 | < 4.34 | O=[C@@](N\C(C([O-])=O)=C/CCCCSC[C@H](N)C(O)=O)[C@@H](C1)C1(C)C.[Na+]
32 | < 4.34 | Cl.c1ccc2c(c1)CCCC2C1=NCCN1 (stereo not drawn)
33 | < 4.34 | CNCCCCOc1ccccc1Cc1ccccc1
34 | < 4.34 | CN(C)c1nc(N(C)C)nc(N(C)C)n1
35 | < 4.34 | [NH2][Pt]([NH2])([Cl])[Cl]
36 | < 4.34 | Nc1nc(=O)c(Br)c(-c2ccccc2)[nH]1
37 | < 4.34 | Cc1cc2nc3c(=O)[nH]c(=O)nc-3n(C[C@H](O)[C@H](O)[C@H](O)CO)c2cc1C
38 | < 4.34 | O=C3N1/C(=C(\CS[C@@H]1[C@@H]3NC(=O)Cc2ccccc2CN)CSc4nnnn4CC(O)=O)C(O)=O
39 | < 4.34 | O=S(=O)(O)c1cc(I)c(O)c2ncccc12
40 | < 4.34 | CCCCC(CC)COC(=O)C(C#N)=C(c1ccccc1)c1ccccc1 (stereo not drawn)
41 | < 4.34 | Cc1c(NC(C)C)c(=O)n(-c2ccccc2)n1C
42 | < 4.34 | NCCNCCNCCNCCN
43 | < 4.34 | CC(=O)Nc1ccc(O)cc1
44 | < 4.34 | C[C@]12CC[C@@H]3c4ccc(O)cc4CC[C@H]3[C@@H]1CC[C@@H]2OP(=O)(O)O
45 | < 4.34 | CC(/C=C/C=C(\C)C(=O)O[C@@H]1O[C@H](CO[C@@H]2O[C@H](CO)[C@@H](O)[C@H](O)[C@H]2O)[C@@H](O)[C@H](O)[C@H]1O)=C\C=C\C=C(C)\C=C\C=C(/C)C(=O)O[C@@H]1O[C@H](CO[C@@H]2O[C@H](CO)[C@@H](O)[C@H](O)[C@H]2O)[C@@H](O)[C@H](O)[C@H]1O
46 | < 4.34 | CC(C)(CO)[C@@H](O)C(=O)NCCCO
47 | < 4.34 | Nc1ccc(S(=O)(=O)Nc2ccccn2)cc1
48 | < 4.34 | CCCc1cc(C(N)=S)ccn1
49 | < 4.34 | OCCN(CCO)c1nc(N2CCCCC2)c2nc(N(CCO)CCO)nc(N3CCCCC3)c2n1
50 | < 4.34 | O=C(O[C@@H]5C4CCN(C5)CC4)N2[C@@H]([C@]3=CC=CC=C3)C1=CC=CC=C1CC2.Cl
51 | < 4.34 | CCCCCCCCCCCCCCCCCCOC[C@H](COP(=O)([O-])OCC[N+](C)(C)C)OC
52 | < 4.34 | C=CC(N)CCC(=O)O (stereo not drawn)

Row | pIC50 | SMILES
53 | < 4.34 | O=S(=O)([O-])CCS.[Na+]
54 | < 4.34 | O=[C@]([C@H]2N(CCC)CCCC2)NC1=C(C)C=CC=C1C.Cl
55 | < 4.34 | O=C(O)c1ccccc1-c1ccc(C(F)(F)F)cc1
56 | < 4.34 | CN1CCN(c2c(F)cc3c(=O)c(C(=O)O)cn4c3c2SCC4)CC1.Cl
57 | < 4.34 | CNC[C@H](O)[C@@H](O)[C@H](O)[C@H](O)CO
58 | < 4.34 | O=C(C)N1[C@](C[C@](O)([H])C1)([H])[C@@](O)=O
59 | < 4.34 | CC(C)C[C@@H](N)C(=O)O
60 | < 4.34 | CC1(C)Oc2ccc(C#N)cc2[C@@H](N2CCCC2=O)[C@@H]1O
61 | < 4.34 | O=C(NNCNNC(=O)c1ccncc1)c1ccncc1
62 | < 4.34 | O=C([O-])c1nc(O)nc(O)n1.[K+]
63 | < 4.34 | O=C1N2[C@@](SC(C)(C)[C@@H]2[C@@](O)=O)([H])[C@@]([H])1NC([C@H](NC([C@H](N)CC(NC)=O)=O)[C@@]3=CC=C(O)C=C3)=O
64 | < 4.34 | Cl.O=c1n(CCCN2CCN(c3cccc(Cl)c3)CC2)nc2ccccn12
65 | < 4.34 | Cl.Cl.NC(=O)C1(N2CCCCC2)CCN(CCCC(=O)c2ccc(F)cc2)CC1
66 | < 4.34 | Cc1ncc(C[n+]2csc(CCOP(=O)(O)O)c2C)c(N)n1.[Cl-]
67 | < 4.34 | Cl.O=C(O)c1cn(C2CC2)c2cc(N3CCNCC3)c(F)cc2c1=O
68 | < 4.34 | CCCCCCCCCCOCC(O)CN.Cl (stereo not drawn)
69 | < 4.34 | CC(C)NCC(O)c1ccc(NS(C)(=O)=O)cc1 (stereo not drawn)
70 | < 4.34 | O=C(O)CCc1nc(-c2ccccc2)c(-c2ccccc2)o1
71 | < 4.34 | CC1(C)S[C@@H]2[C@H](NC(=O)C(C(=O)[O-])c3ccsc3)C(=O)N2[C@H]1C(=O)[O-].[Na+].[Na+] (stereo partly drawn)
72 | < 4.34 | CCN(CC)S(=O)(=O)c1ccc(C(=O)O)cc1
73 | < 4.34 | COCC(=O)Nc1c(I)c(C(=O)NCC(O)CO)c(I)c(C(=O)N(C)CC(O)CO)c1I (stereo not drawn)
74 | < 4.34 | CC(C)CCC[C@@H](C)[C@H]1CC[C@H]2[C@@H]3CC[C@@H]4C[C@H](O)CC[C@]4(C)[C@H]3CC[C@]12C
75 | < 4.34 | Brc1c(NC2=NCCN2)ccc2nccnc12
76 | < 4.34 | CCN[C@H]1CN(CCCOC)S(=O)(=O)c2sc(S(N)(=O)=O)cc21
77 | < 4.34 | C=C1c2c(Cl)ccc(O)c2C(=O)C2=C(O)[C@]3(O)C(=O)C(C(N)=O)=C(O)[C@@H](N(C)C)[C@@H]3[C@@H](O)[C@H]12.O=C(O)c1cc(S(=O)(=O)O)ccc1O

Row | SMILES | pIC50
78 | ClC4=C(Cl)[C@]5(Cl)[C@@]2([H])[C@]([C@](Cl)4[C@](Cl)5Cl)([H])[C@H]3[C@@H]1O[C@@H]1[C@@H]2C3 | < 4.34
79 | CC(C)NCC(O)COc1ccc(COCCOC(C)C)cc1.CC(C)NCC(O)COc1ccc(COCCOC(C)C)cc1.O=C(O)/C=C/C(=O)O (stereo not drawn) | < 4.34
80 | C[C@]12CC[C@H](OS(=O)(=O)[O][Na])CC1=CC[C@@H]1[C@@H]2CC[C@]2(C)C(=O)CC[C@@H]12.O.O | < 4.34
81 | Nc1ncnc2c1ncn2CCOCP(=O)(O)O | < 4.34
82 | CS(=O)(=O)O.N=C(N)Nc1ccc(C(=O)Oc2ccc3cc(C(=N)N)ccc3c2)cc1 | < 4.34
83 | Cc1cc(O)ccc1Cl | < 4.34
84 | CCN(CCO)CCCC(C)Nc1ccnc2cc(Cl)ccc12.O=S(=O)(O)O (stereo not drawn) | < 4.34
85 | Cc1ncc(CNC(=O)N(CCCl)N=O)c(N)n1 | < 4.34
86 | CC(=O)Oc1ccc2c3c1O[C@H]1[C@@H](OC(C)=O)C=C[C@H]4[C@@H](C2)N(C)CC[C@@]341 | < 4.34
87 | c1ccc(C2CC2)c(OCC2=NCCN2)c1 | < 4.34
88 | Cl.Clc1ccc(C(OCCN2CCCCC2)c2ccccc2)cc1 (stereo not drawn) | < 4.34
89 | O[C@H]1[C@@H]([C@H](O)CO)O[C@H]2[C@@H]1O[C@@H]([C@@](Cl)(Cl)Cl)O2 | < 4.34
90 | Cc1ccc(-c2nc3ccc(C)cn3c2CC(=O)N(C)C)cc1 | < 4.34
91 | CC1NCCOC1c1ccccc1.Cl (stereo not drawn) | < 4.34
92 | CCOc1cc(N)c(Cl)cc1C(=O)NCC1CN(Cc2ccc(F)cc2)CCO1.O=C(O)CC(O)(CC(=O)O)C(=O)O (stereo not drawn) | < 4.34
93 | N=C(Nc1ccccc1)Nc1ccccc1 | < 4.34
94 | CCOc1ccccc1O[C@H](c1ccccc1)[C@H]1CNCCO1.CS(=O)(=O)O | < 4.34
95 | O=[C@@](OCC2=CC=CC(OC3=CC=CC=C3)=C2)[C@H]1C(C)(C)C1/C=C(C)/C (stereo partly drawn) | < 4.34
96 | O.O.O.O.O.O.O.O=S(=O)([O-])[O-].[Co+2] | < 4.34
97 | CN1Cc2c(N)cccc2C(c2ccccc2)C1.O=C(O)/C=C\C(=O)O (stereo not drawn) | < 4.34
98 | CN1CCC[C@@H]1CCO[C@](C)(c1ccccc1)c1ccc(Cl)cc1.O=C(O)/C=C/C(=O)O | < 4.34
